# Measurements from patent US12336982B2 (RODEO THERAPEUTICS CORPORATION, priority 2018, dated 2025).
# Target: T1, recombinant 15-PGDH (Homo sapiens, UniProt P15428)
# T1 sequence (P15428 1-266): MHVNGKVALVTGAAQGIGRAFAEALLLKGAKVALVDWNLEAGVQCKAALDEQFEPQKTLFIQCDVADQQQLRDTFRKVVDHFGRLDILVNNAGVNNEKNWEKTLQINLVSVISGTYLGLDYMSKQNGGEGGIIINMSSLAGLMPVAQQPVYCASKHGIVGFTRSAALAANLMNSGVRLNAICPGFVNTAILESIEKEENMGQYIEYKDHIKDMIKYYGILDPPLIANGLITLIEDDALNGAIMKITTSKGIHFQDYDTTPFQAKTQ
# Assay type: biochemical
# Conditions: recombinant human 15-PGDH, in vitro; read-out: PDGH Assay-IC50
# From the text: The Recombinant 15-PGDH is human unless otherwise specified.
row,Structure (SMILES),IC50 [nM]
1,Cn1nccc1-c1cc(-c2cncnc2)nc2sc([S+]([O-])C3CCC3)c(N)c12 (stereo not shown) [Example 195],< 2.5
2,COCC[S+]([O-])c1sc2nc(-c3cnc(N)nc3)cc(-c3cnn(C)c3)c2c1N (stereo not shown) [Example 196],< 2.5
3,Nc1c([S+]([O-])C2CCC2)sc2nc(-c3cnc(N(CCO)CCO)nc3)cc(-c3ccccc3)c12 (stereo not shown) [Example 197],< 2.5
4,COCC[S@@+]([O-])c1sc2nc(-c3cncnc3)cc(C(F)(F)F)c2c1N [Example 198],< 2.5
5,COCC[S@+]([O-])c1sc2nc(-c3cncnc3)cc(C(F)(F)F)c2c1N [Example 199],≥ 10
6,COCCC[S@@+]([O-])c1sc2nc(-c3cncnc3)cc(C(F)(F)F)c2c1N [Example 200],< 2.5
7,COCCC[S@+]([O-])c1sc2nc(-c3cncnc3)cc(C(F)(F)F)c2c1N [Example 201],≥ 10
8,COCC[S@@+]([O-])c1sc2nc(-c3cnc(N)nc3)cc(C(F)(F)F)c2c1N [Example 202],< 2.5
9,COCCC[S@@+]([O-])c1sc2nc(-c3cnc(N)nc3)cc(C(F)(F)F)c2c1N [Example 203],< 2.5
10,Nc1c([S+]([O-])C2CCC2)sc2nc(-c3cncnc3)cc(C(F)(F)F)c12 (stereo not shown) [Example 204],< 2.5
11,Nc1c([S@+]([O-])C2CCC2)sc2nc(-c3cnc(NCCO)nc3)cc(C(F)(F)F)c12 [Example 205],< 2.5
12,COCC[S@@+]([O-])c1sc2nc(-c3cnc(NCCO)nc3)cc(C(F)(F)F)c2c1N [Example 206],< 2.5
13,COCCC[S@@+]([O-])c1sc2nc(-c3cnc(NCCO)nc3)cc(C(F)(F)F)c2c1N [Example 207],< 2.5
14,COCC[S+]([O-])c1sc2nc(-c3cnc4nn(C)cc4c3)cc(C(F)(F)F)c2c1NC(C)=O (stereo not shown) [Example 208],≥ 10
15,COCCC[S+]([O-])c1sc2nc(-c3ccnnc3)cc(-c3ccccc3)c2c1N (stereo not shown) [Example 209],< 2.5
16,COCC[S+]([O-])c1sc2nc(-c3ccnnc3)cc(-c3ccccc3)c2c1N (stereo not shown) [Example 210],< 2.5
17,COCC[S@@+]([O-])c1sc2nc(-c3ccnnc3)cc(-c3ccccc3)c2c1N [Example 211],< 2.5

row,Structure (SMILES),IC50 [nM]
1,COCC[S@+]([O-])c1sc2nc(-c3ccnnc3)cc(-c3ccccc3)c2c1N [Example 212],≥ 10
2,Cn1ccc(-c2cc(-c3ccnnc3)nc3sc([S+]([O-])C4CCC4)c(N)c23)n1 (stereo not shown) [Example 213],< 2.5
3,COCC[S+]([O-])c1sc2nc(-c3ccc4[nH]nnc4c3)cc(-c3ccnn3C)c2c1N (stereo not shown) [Example 214],< 2.5
4,Nc1c([S@+]([O-])C2CCC2)sc2nc(-c3cncnc3)cc(-c3ccnn3C3CC3)c12 [Example 215],< 2.5
5,Cn1nccc1-c1cc(-c2cnc3c(=O)n(C)ccc3c2)nc2sc([S+]([O-])C3CCC3)c(N)c12 (stereo not shown) [Example 216],< 2.5
6,Cc1nn(C)cc1-c1cc(-c2cnc(N)nc2)nc2sc([S+]([O-])C3CCC3)c(N)c12 (stereo not shown) [Example 218],< 2.5
7,Nc1c([S@+]([O-])C2CCC2)sc2nc(-c3cc(=O)[nH]cn3)cc(-c3ccccc3)c12 [Example 219],< 2.5
8,COCC[S@@+]([O-])c1sc2nc(-c3cc(=O)n(C)cn3)cc(-c3ccccc3)c2c1N [Example 220],< 2.5
9,Nc1c([S+]([O-])C2CCC2)sc2nc(-c3cnc(CO)nc3)cc(-c3ccccc3)c12 (stereo not shown) [Example 221],< 2.5
10,Nc1c([S+]([O-])C2CCC2)sc2nc(-c3cnc(NCCO)nc3)cc(C3COC3)c12 (stereo not shown) [Example 222],< 2.5
11,Cn1nccc1-c1cc(-c2cnc(O)nc2)nc2sc([S+]([O-])C3CCC3)c(N)c12 (stereo not shown) [Example 223],< 2.5
12,Cn1nccc1-c1cc(-c2cnc(O)nc2)nc2sc([S@+]([O-])C3CCC3)c(N)c12 [Example 224],< 2.5
13,Cn1nccc1-c1cc(-c2cnc(O)nc2)nc2sc([S@@+]([O-])C3CCC3)c(N)c12 [Example 225],≥ 10
14,COCC[S+]([O-])c1sc2nc(-c3cnc4c(cnn4C)c3)cc(C3CC3)c2c1N (stereo not shown) [Example 226],< 2.5
15,COCC[S+]([O-])c1sc2nc(-c3cncnc3)cc(-c3ncccn3)c2c1N (stereo not shown) [Example 229],< 2.5
16,COCC[S@@+]([O-])c1sc2nc(-c3cncnc3)cc(-c3ncccn3)c2c1N [Example 230],< 2.5

# Second part, the compound after the results:
row,IC50 [nM],Structure (SMILES)
1,≥ 10,COCC[S@+]([O-])c1sc2nc(-c3cncnc3)cc(-c3ncccn3)c2c1N [Example 231]
2,< 2.5,COCCNc1ncc(-c2cc(-c3ncccn3)c3c(N)c([S+]([O-])C4CCC4)sc3n2)cn1 (stereo not shown) [Example 232]
3,< 2.5,COCCC[S+]([O-])c1sc2nc(-c3cncnc3)cc(-c3cnccn3)c2c1N (stereo not shown) [Example 233]
4,≥ 10,COCCC[S@@+]([O-])c1sc2nc(-c3cncnc3)cc(-c3cnccn3)c2c1N [Example 234]
5,< 2.5,COCCC[S@+]([O-])c1sc2nc(-c3cncnc3)cc(-c3cnccn3)c2c1N [Example 235]
6,< 2.5,COCCC[S+]([O-])c1sc2nc(-c3cncnc3)cc(-c3cccnn3)c2c1N (stereo not shown) [Example 236]
7,< 2.5,COCCC[S+]([O-])c1sc2nc(-c3cncnc3)cc(-c3ccncn3)c2c1N (stereo not shown) [Example 237]
8,< 2.5,COCCC[S@@+]([O-])c1sc2nc(-c3cncnc3)cc(-c3ccncn3)c2c1N [Example 238]
9,≥ 10,COCCC[S@+]([O-])c1sc2nc(-c3cncnc3)cc(-c3ccncn3)c2c1N [Example 239]
10,2.5 to 10,COCCC[S+]([O-])c1sc2nc(-c3cncnc3)cc(-c3ccnnc3)c2c1N (stereo not shown) [Example 240]
11,< 2.5,COCC[S+]([O-])c1sc2nc(-c3cnc4c(c3)CNC4=O)cc(-c3ccccc3)c2c1N (stereo not shown) [Example 241]
12,< 2.5,COCC[S@@+]([O-])c1sc2nc(-c3cnc4c(c3)CNC4=O)cc(-c3ccccc3)c2c1N [Example 242]
13,≥ 10,COCC[S@+]([O-])c1sc2nc(-c3cnc4c(c3)CNC4=O)cc(-c3ccccc3)c2c1N [Example 243]
14,< 2.5,COCC[S+]([O-])c1sc2nc(-c3cnc4c(c3)nnn4C)cc(C3CC3)c2c1N (stereo not shown) [Example 244]
15,< 2.5,Nc1c([S+]([O-])C2CCC2)sc2nc(-c3cnc(N4CC(O)C4)nc3)cc(-c3ccccc3)c12 (stereo not shown) [Example 248]
16,< 2.5,Nc1c([S+]([O-])C2CCC2)sc2nc(-c3cnc(N4CC(O)C4)nc3)cc(C3CC3)c12 (stereo not shown) [Example 250]
17,< 2.5,COCC[S+]([O-])c1sc2nc(-c3cncnc3)cc(C3CCC3)c2c1N (stereo not shown) [Example 251]
18,< 2.5,COCC[S@@+]([O-])c1sc2nc(-c3cncnc3)cc(C3CCC3)c2c1N [Example 252]
19,≥ 10,COCC[S@+]([O-])c1sc2nc(-c3cncnc3)cc(C3CCC3)c2c1N [Example 253]
20,< 2.5,COCCC[S+]([O-])c1sc2nc(-c3cncnc3)cc(C3CCC3)c2c1N (stereo not shown) [Example 254]
21,< 2.5,Nc1c([S+]([O-])C2CCC2)sc2nc(-c3cncnc3)cc(C3CCC3)c12 (stereo not shown) [Example 255]
22,< 2.5,COCC[S+]([O-])c1sc2nc(-c3cncnc3)cc(C34CC(C3)C4)c2c1N (stereo not shown) [Example 256]

row,IC50 [nM],Structure (SMILES)
1,< 2.5,Nc1c([S+]([O-])C2CCC2)sc2nc(-c3cncnc3)cc(C34CC(C3)C4)c12 (stereo not shown) [Example 257]
2,< 2.5,COCCC[S+]([O-])c1sc2nc(-c3cnc4nn(C)cc4c3)cc(C3CCC3)c2c1N (stereo not shown) [Example 260]
3,< 2.5,COCCC[S@@+]([O-])c1sc2nc(-c3cnc4nn(C)cc4c3)cc(C3CCC3)c2c1N [Example 261]
4,≥ 10,COCCC[S@+]([O-])c1sc2nc(-c3cnc4nn(C)cc4c3)cc(C3CCC3)c2c1N [Example 262]
5,< 2.5,COCC[S+]([O-])c1sc2nc(-c3cnc4nn(CCO)cc4c3)cc(-c3ccccc3)c2c1N (stereo not shown) [Example 263]
6,< 2.5,COCC[S+]([O-])c1sc2nc(-c3cnc4nn(CCO)cc4c3)cc(C3CCC3)c2c1N (stereo not shown) [Example 266]
7,< 2.5,COCCC[S+]([O-])c1sc2nc(-c3cnc4nn(CCO)cc4c3)cc(-c3ccccc3)c2c1N (stereo not shown) [Example 269]
8,< 2.5,COCCC[S+]([O-])c1sc2nc(-c3cnc4nn(CCO)cc4c3)cc(C3CCC3)c2c1N (stereo not shown) [Example 270]
9,< 2.5,COCC[S+]([O-])c1sc2nc(-c3cnn(CCO)c3)cc(-c3ccccc3)c2c1N (stereo not shown) [Example 271]
10,< 2.5,Nc1c([S+]([O-])C2CCC2)sc2nc(-c3cnn(CCO)c3)cc(-c3ccccc3)c12 (stereo not shown) [Example 272]
11,< 2.5,COCCC[S+]([O-])c1sc2nc(-c3cnn(CCO)c3)cc(-c3ccccc3)c2c1N (stereo not shown) [Example 273]
12,< 2.5,COCCC[S+]([O-])c1sc2nc(-c3cnn(CCO)c3)cc(-c3ccccc3)c2c1N (stereo not shown) [Example 274]
13,< 2.5,COCC[S@@+]([O-])c1sc2nc(-c3cnn(C)c3)cc(C3CC3)c2c1N [Example 275]
14,≥ 10,COCC[S@+]([O-])c1sc2nc(-c3cnn(C)c3)cc(C3CC3)c2c1N [Example 276]
15,< 2.5,Cn1cc(-c2cc(C3CC3)c3c(N)c([S+]([O-])C4CCC4)sc3n2)cn1 (stereo not shown) [Example 277]
16,< 2.5,COCCC[S+]([O-])c1sc2nc(-c3cnn(C)c3)cc(C3CC3)c2c1N (stereo not shown) [Example 278]
17,2.5 to 10,Cn1cc(-c2cc(-c3cnc4nn(C)cc4c3)nc3sc([S+]([O-])C4CCC4)c(N)c23)cn1 (stereo not shown) [Example 279]
18,< 2.5,Cn1ccc(-c2cc(-c3cncnc3)nc3sc([S+]([O-])C4CCC4)c(N)c23)n1 (stereo not shown) [Example 280]
19,< 2.5,Cc1ncc(-c2cc(-c3cnn(C)c3)c3c(N)c([S+]([O-])C4CCC4)sc3n2)cn1 (stereo not shown) [Example 281]
20,< 2.5,Cn1cc(-c2cc(-c3cncnc3)nc3sc([S+]([O-])C4CCC4)c(N)c23)cn1 (stereo not shown) [Example 282]
21,< 2.5,Cn1cc2cc(-c3cc(-c4ccc(OCCO)cc4)c4c(N)c([S+]([O-])C5CCC5)sc4n3)cnc2n1 (stereo not shown) [Example 283]
